Assay results from patent US9889146B2, “Benzoxaborole compounds and uses thereof” (priority 2012, dated 2018).
≈ marks a conversion by molar mass, not a printed value. Like-named read-outs stand apart in the source and are kept apart here.

Experiments:
Enterobacteriaceae = assay: organism not typed; format: cell-based; settings: Enterobacteriaceae, 2029 isolates; read-out: MIC90
E. coli (WT) = assay: microbe, parasite or virus in culture; format: cell-based; settings: Escherichia coli; E. coli (WT), 214 isolates; read-out: MIC90
E. coli (ESBL) = assay: microbe, parasite or virus in culture; format: cell-based; settings: Escherichia coli
Klebsiella spp. (WT) = assay: microbe, parasite or virus in culture; format: cell-based; settings: Klebsiella spp. (WT), 159 isolates; read-out: MIC90
Klebsiella spp. (ESBL) = assay: microbe, parasite or virus in culture; format: cell-based; settings: Klebsiella
Klebsiella spp. (KPC) = assay: microbe, parasite or virus in culture; format: cell-based; settings: Klebsiella
[1] = tested on: Enterobacter aerogenes (WT); assay: microbe, parasite or virus in culture; format: cell-based; settings: Klebsiella aerogenes; Enterobacter aerogenes (WT), 199 isolates; read-out: MIC90
[2] = tested on: Enterobacter aerogenes (AmpC); assay: microbe, parasite or virus in culture; format: cell-based; settings: Klebsiella aerogenes
[3] = tested on: Enterobacter cloacae (WT); assay: microbe, parasite or virus in culture; format: cell-based; settings: 202 isolates, read-out: MIC90
[4] = tested on: Enterobacter cloacae (AmpC); assay: microbe, parasite or virus in culture; format: cell-based; settings: Enterobacter cloacae
[5] = tested on: Citrobacter freundii (AmpC); assay: microbe, parasite or virus in culture; format: cell-based; settings: Citrobacter freundii
[6] = tested on: Morganella morganii (AmpC); assay: microbe, parasite or virus in culture; format: cell-based; settings: Morganella morganii
Proteus mirabilis (WT) = assay: microbe, parasite or virus in culture; format: cell-based; settings: Proteus mirabilis (WT), 235 isolates; read-out: MIC90
Proteus vulgaris (WT) = assay: microbe, parasite or virus in culture; format: cell-based; settings: Proteus vulgaris (WT), 41 isolates; read-out: MIC90
Providencia spp.(all) = assay: microbe, parasite or virus in culture; format: cell-based; settings: Providencia spp.(all), 68 isolates; read-out: MIC90
S. marcescens (AmpC) = assay: microbe, parasite or virus in culture; format: cell-based; settings: Serratia marcescens
P. aeruginosa = assay: In vitro activity against P. aeruginosa clinical isolates; format: cell-based; settings: P. aeruginosa, 2,008 clinical isolates; GSK2251052 based on potential susceptible breakpoint of ≦4 μg/mL
Description: GSK2251052 was tested for activity against P. aeruginosa, and its activity was compared to other antibiotics of known activity. The results are shown below in Tables 2a and 2b. Of 2,008 clinical isolates tested (from 2009-2010 subjects, of which 40% were from North America) greater than 90% were susceptible to GSK2251052 based on a potential susceptible breakpoint of ≦4 μg/mL.

E. coli ATCC 25922 = assay: Spontaneous frequency of resistance; format: cell-based; settings: 24 h
Description: (§1) Spontaneous Resistance Frequency was determined in vitro for GSK2251052 and the resistance mutants in E. coli ATCC 25922, K. pneumoniae ATCC 13883, and P. aeruginosa ATCC 27853 strains were characterized. GSK2251052 was prepared as described in U.S. Pat. No. 7,816,344 (the entire contents of which are hereby incorporated by reference herein). LB broth, Mueller Hinton II broth (adjusted), and Difco noble agar were obtained from Becton Dickinson (Cockeysville, Md., USA). M9 minimal broth containing 1×M9 salt, 0.5 μg/ML thiamine, 1 mM MgSO4, 0.1 mM CaCl2, 2% glucose, was obtained from Teknova (Hollister, Calif., USA). Antibacterial agents ciprofloxacin, ceftazidime, chloramphenicol, gentamycin, kanamycin, polymixin B, tobramycin and trimethoprim, and amino acids were obtained from Sigma Chemicals (St. Louis, Mo., USA). Strains were obtained from ATCC (Manassas, Va., USA).
(§2) Selection of resistance to GSK2251052 was attempted by spreading various amounts of bacteria onto MHBII noble agar plates containing 4×MIC (minimum inhibitory concentration) or 10×MIC of GSK2251052. Colonies were counted after 24 hours and 48 hours incubation at 37° C. The resistance of these colonies was confirmed by their ability to grow on plates containing GSK2251052 at either 4× or 10×MIC. Frequency of resistance was determined by dividing the number of resistant mutants by the total number of cells plated as determined by plating dilutions of the overnight culture on LB plates.

K. pneumoniae ATCC 13883 = assay: Spontaneous frequency of resistance; format: cell-based; settings: 24 h
Description: as §1, §2

P. aeruginosa ATCC 27853 = assay: Spontaneous frequency of resistance; format: cell-based; settings: 24 h
Description: as §1, §2

[7] = tested on: E. coli ATCC 25922 wild type and mutants; assay: MIC, wild type and GSK2251052 resistant mutants; format: cell-based; settings: Escherichia coli
Procedure, shortened: (§3)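 MICs were determined following CLSI M7-A7 recommendations for aerobic bacteria. Strains were E. coli ATCC 25922, K. pneumoniae ATCC 13883, P. aeruginosa ATCC 27853 and six to ten laboratory-selected GSK2251052-resistant colonies of each, carrying mutations in the LeuRS editing domain.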

[8] = tested on: K. pneumoniae ATCC 13883 wild type and mutants; assay: MIC, wild type and GSK2251052 resistant mutants; format: cell-based; settings: Klebsiella pneumoniae
Procedure, shortened: as §3

[9] = tested on: P. aeruginosa ATCC 27853 wild type and mutants; assay: MIC, wild type and GSK2251052 resistant mutants; format: cell-based; settings: Pseudomonas aeruginosa
Procedure, shortened: as §3

[10] = tested on: E. coli ATCC 25922, K. pneumoniae ATCC 13883 and P. aeruginosa ATCC 27853; assay: MIC, three strains and their mutants summarised; format: cell-based; settings: MIC in E. coli, P. aeruginosa and K. pneumoniae mutants versus wild-type
Description: as §1
Susceptibility tests were performed following the recommendations for aerobic bacteria (M7-A7) from the Clinical and Laboratories Standards Institute (CLSI).
Laboratory generated mutants resistant to GSK2251052 contain mutations in the editing domain of LeuRS. Six to ten GSK2251052 resistant colonies of E. coli ATCC 25922, K. pneumoniae ATCC 13883 and P. aeruginosa ATCC 27853 were selected for further analysis and their MICs to GSK2251052 were determined (Table 4-7).
GSK2251052 resistant mutants were not cross-resistant to commercial antibiotics.

K. pneumoniae = settings: up regulation of an AcrAB efflux pump; Ruzin et al. AAC 2005; cited from earlier work

`CC(C)(O/N=C(\C(=O)N[C@@H]1C(=O)N2C(C(=O)[O-])=C(C[n+]3ccccc3)CS[C@H]12)c1csc(N)n1)C(=O)O` [Ceftazidime] gave an MIC90 (Enterobacteriaceae) greater than 16 µg/mL, an MIC90 (E. coli (WT)) of no more than 1 µg/mL and an MIC90 (E. coli (ESBL)) greater than 16 µg/mL. The MIC90 (Klebsiella spp. (WT)) was no more than 1 µg/mL, the MIC90 (Klebsiella spp. (ESBL)) was greater than 16 µg/mL and the MIC90 (Klebsiella spp. (KPC)) was greater than 16 µg/mL. The MIC90 [1] was no more than 1 µg/mL, the MIC90 [2] was greater than 16 µg/mL and the MIC90 [3] was no more than 1 µg/mL. The MIC90 [4] was greater than 16 µg/mL, the MIC90 [5] was greater than 16 µg/mL and the MIC90 [6] was greater than 16 µg/mL. The MIC90 (Proteus mirabilis (WT)) was no more than 1 µg/mL, the MIC90 (Proteus vulgaris (WT)) was no more than 1 µg/mL and the MIC90 (Providencia spp.(all)) was 8 µg/mL (≈ 14.6 µM). For the same compound, the MIC90 (S. marcescens (AmpC)) was greater than 16 µg/mL, the “% susceptible” value (P. aeruginosa) was 66.4% and the “Frequency of Resistance” value (E. coli ATCC 25922; 4 X MIC) was <3 × 10^−9. The “Frequency of Resistance” value (E. coli ATCC 25922; 10 X MIC) was <3 × 10^−9, the “Frequency of Resistance” value (K. pneumoniae ATCC 13883; 4 X MIC) was 1 × 10^−8 and the “Frequency of Resistance” value (K. pneumoniae ATCC 13883; 10 X MIC) was <4 × 10^−9. For the same compound, the “Frequency of Resistance” value (P. aeruginosa ATCC 27853; 4 X MIC) was 2 × 10^−7, the “Frequency of Resistance” value (P. aeruginosa ATCC 27853; 10 X MIC) was 2 × 10^−8 and the MIC ([7]; ATCC25922, E wt, read-out: MICs) was 0.5 µg/mL (≈ 0.915 µM). For the same compound, the MIC ([7]; ATCC25922, read-out: MICs, mutant E 101) was 0.5 µg/mL (≈ 0.915 µM), the MIC ([7]; ATCC25922, read-out: MICs, mutant E 102) was 0.5 µg/mL (≈ 0.915 µM) and the MIC ([7]; ATCC25922, read-out: MICs, mutant E 107) was 0.5 µg/mL (≈ 0.915 µM). The MIC ([8]; ATCC13883, K wt., read-out: MICs) was 0.5 µg/mL (≈ 0.915 µM), the MIC ([8]; ATCC13883, read-out: MICs, mutant K 104) was 0.5 µg/mL (≈ 0.915 µM) and the MIC ([8]; ATCC13883, read-out: MICs, mutant K 105) was 0.5 µg/mL (≈ 0.915 µM). For the same compound, the MIC ([8]; ATCC13883, read-out: MICs, mutant K 107) was 0.5 µg/mL (≈ 0.915 µM), the MIC ([8]; ATCC13883, read-out: MICs, mutant K 108) was 1 µg/mL (≈ 1.83 µM) and the MIC ([8]; ATCC13883, read-out: MICs, mutant K 110) was 0.5 µg/mL (≈ 0.915 µM). It also gave an MIC ([9]; ATCC27853, P wt., read-out: MICs) of 2 µg/mL (≈ 3.66 µM), an MIC ([9]; ATCC27853, read-out: MICs, mutant P 101) of 4 µg/mL (≈ 7.32 µM) and an MIC ([9]; ATCC27853, read-out: MICs, mutant P106) of 2 µg/mL (≈ 3.66 µM). For the same compound, the MIC ([9]; ATCC27853, read-out: MICs, mutant P108) was 2 µg/mL (≈ 3.66 µM) and the “cross-resistance of GSK2251052 resistant mutants” value [10] was “did not have any significant difference in MIC values than wild-type”.
`CN(C)c1cc(NC(=O)CNC(C)(C)C)c(O)c2c1C[C@H]1C[C@H]3[C@H](N(C)C)C(O)=C(C(N)=O)C(=O)[C@@]3(O)C(O)=C1C2=O` [Tigecycline] gave an MIC90 (Enterobacteriaceae) of 2 µg/mL (≈ 3.41 µM), an MIC90 (E. coli (WT)) of 0.25 µg/mL (≈ 0.427 µM) and an MIC90 (E. coli (ESBL)) of 0.5 µg/mL (≈ 0.854 µM). For the same compound, the MIC90 (Klebsiella spp. (WT)) was 1 µg/mL (≈ 1.71 µM), the MIC90 (Klebsiella spp. (ESBL)) was 2 µg/mL (≈ 3.41 µM) and the MIC90 (Klebsiella spp. (KPC)) was 2 µg/mL (≈ 3.41 µM). For the same compound, the MIC90 [1] was 0.5 µg/mL (≈ 0.854 µM), the MIC90 [2] was 2 µg/mL (≈ 3.41 µM) and the MIC90 [3] was 0.5 µg/mL (≈ 0.854 µM). For the same compound, the MIC90 [4] was 4 µg/mL (≈ 6.83 µM), the MIC90 [5] was 2 µg/mL (≈ 3.41 µM) and the MIC90 [6] was 4 µg/mL (≈ 6.83 µM). It also gave an MIC90 (Proteus mirabilis (WT)) of 4 µg/mL (≈ 6.83 µM), an MIC90 (Proteus vulgaris (WT)) of 2 µg/mL (≈ 3.41 µM) and an MIC90 (Providencia spp.(all)) of 4 µg/mL (≈ 6.83 µM). The MIC90 (S. marcescens (AmpC)) was 2 µg/mL (≈ 3.41 µM) and the “phenotype of resistant mutants” value (K. pneumoniae) was “multidrug-resistant”.
